Columns and labels:
[1] = system: PC12 cells; test: Fluorescence determination of number of living cells and amount of neurite outgrowth (neurite outgrowth staining kit); type: cell-based; conditions: NGF added section (100 ng/mL)
Experimental: (§1) A test was carried out at five concentrations (1.6, 8, 40, 200 and 1,000 μg/mL) of 1,5-AG. Stated more specifically, a 1,5-AG aqueous solution having a concentration of 100 mg/mL was diluted with water to prepare 100 times-concentrated solutions having concentrations of 0.16, 0.8, 4, 20 and 100 mg/mL. These 100 times-concentrated solutions were each added to a test medium in a ratio of 1/100 to achieve final concentrations of 1.6, 8, 40, 200 and 1,000 μg/mL and sterilized with a filter to be used in the test. As a negative control, water was added to a medium in a ratio of 1/100 and sterilized with a filter to be used in the test. As a positive control, a test medium containing a 100 ng/mL nerve growth factor (NGF) was used.
(§2) A growth medium was used to adjust the cells to a concentration of 2.0×10^3 cells/100 μL/well, and the cells were scattered in a collagen-coated 96-well plate to be cultured in a CO2 incubator (5% CO2, 37° C., moistening) for 24 hours. After culture, the medium was replaced by a sample-containing test medium (100 μL), and the cells were cultured in a CO2 incubator for 96 hours. After the end of culture, an image of the cells in each well was taken with a phase difference microscope and used for the measurement of nuetrite outgrowth rate, and nuclei and cytoplasms were fluorescent dyed by using a neurite outgrowth staining kit to measure the number of living cells and the amount of neurite outgrowth. These procedures were carried out five times each.
After the end of culture, the number of living cells and the amount of neurite outgrowth were determined by using a neurite outgrowth staining kit. Stated more specifically, after the medium was removed, 100 μL of a staining solution (prepared by diluting Cell Viability Indicator and Cell Membrane Stain attached to the kit with calcium magnesium-containing PBS 1,000 times) was added to each well to incubate the cells at 37° C. for 20 minutes. After incubation, the staining solution was removed, 100 μL of a background suppression solution (prepared by diluting the background suppression dye attached to the kit with calcium magnesium-containing PBS 100 times) was added to each well so as to measure fluorescence intensity with a micro plate reader (measurement of the number of living cells: excitation wavelength of 495 nm, fluorescence wavelength of 515 nm, measurement of the amount of neurite outgrowth: excitation wavelength of 555 nm, fluorescent wavelength of 565 nm).

[2] = system: PC12 cells; test: Determination of neurite outgrowth rate in PC12 cells (image count); type: cell-based; conditions: NGF added section (100 ng/mL), 96 hours
Experimental: PSG-1 belongs to an immunoglobulin super family which includes some having the function of promoting neurogenesis. Then, the influence of 1,5-AG upon neuritogenesis was investigated. This was evaluated in a test system using PC12 cells which are generally used for the evaluation of neuritogenesis.
PC12 cells (Lot No. 48, Lot No. 51) (RIKEN cell bank, material 1)
DMEM medium prepared by adding 0.1% of FBS, 0.1% of HS, 1 ng/mL NGF and 1% of penicillin-streptomycin
PC12 cells were initiated in a T-75 flask by using a growth medium to be cultured in a CO2 incubator (5% CO2, 37° C., moistening). Medium exchange was carried out every 2 days, the cells were collected when 80% confluence was reached, and cells having a passage number of 2 were used in this test. Stated more specifically, after the cells were washed with D-PBS (−), the cells were separated by using 0.05% trypsin, and a growth medium was added to neutralize trypsin. Then, the supernatant was removed by centrifugation (180 g, 5 minutes), a growth medium was added to stir the cells, the number of the cells was counted by using a corpuscle calculating board, and a growth medium was used to achieve a target concentration (2.0×10^3 cells/100 μL).
as §1, §2
Based on the image taken above, the total number of cells, the number of cells showing the same or higher neurite outgrowth than the cell length and the number of cells showing neurites having a length 2 times or more than the cell length were measured from the image of the cells. The percentage (%) of cells showing neurite outgrowth was calculated from the measurement values.

## NGF: positive control: a test medium containing a 100 ng/mL nerve growth factor (NGF) [reference compound]
[1]
  amount of neurite outgrowth per cell as compared with the non-added section: 183.1%
[2]
  cells showing a neurite outgrowth rate of 1 time or more: 68.8%
  cells showing a neurite outgrowth rate of 2 times or more: 54.5%

— patent US20170223976A1, “MODIFIED MILK POWDER CONTAINING 1,5-ANHYDRO-D-GLUCITOL” (NIHON STARCH CO., LTD., priority 2015, published 2017)
